System: γ-H2AX, phosphorylated-ATM, phosphorylated-p53, PUMA, BAX, caspase-3, caspase-9 and PARP in LNCaP and DU145 prostate cancer cells
Assay: Western blot of cell damage and cell death proteins, prostate cancer cells
Format: cell-based
Conditions: various concentrations of DT, 6 to 24 hours, vs control vehicle; dose and time dependent; FIG. 9 (a)-(g)
Procedure: An in vitro evaluation on the damage effect of DT on cancer cells was performed, using prostate cancer cells (metastatic LNCaP and metastatic DU145, hormone therapy resistant and metastatic PC3 and 22RV1) and lung cancer cells (A549 and chemotherapy-resistant/metastatic H460).
Cancer cells were treated with a control vehicle, dihydrotestosterone (DHT), and various concentrations of DT between 6 to 24 hours. Cellular extracts of treated cancer cells were analyzed using Western Blot.

Cc1cccc2c3c(ccc12)C(=O)C1=C(OCC1C)C3=O (stereo not drawn) [DT, dihydroisotanshinone I]
increased: DNA damage response proteins (γ-H2AX and phosphorylated-ATM), prostate cancer cells | cell cycle regulatory protein (phosphorylated-p53), prostate cancer cells | cell program death proteins (PUMA, BAX, caspase-3, caspase-9 and PARP), prostate cancer cells
